In ChEMBL document CHEMBL3885881, “DrugMatrix”:

Species on record: Rattus norvegicus
Experiment: DrugMatrix - Regimen: Daily Repeat
Format: toxicity, organism-based, Sprague-Dawley
Set-up: regimen Daily Repeat, gender Male, age 6-8 weeks
Details: in vivo, iv, 6 mg/kg, dose level High, vehicle 100 % SALINE
[1] = 72 h, tissue Plasma, time 3 day
[2] = 120 h, tissue Blood, time 5 day
[3] = 120 h, tissue Plasma, time 5 day

Which “ABSOLUTE BASOPHIL” value (72 h, tissue Blood, time 3 day) does the source give for SODIUM NITROPRUSSIDE here?
The value was 0 CELLS/uL.

What about the “ABSOLUTE EOSINOPHIL” value (72 h, tissue Blood, time 3 day) of the same substance?
The value was 0 CELLS/uL.

And the “ABSOLUTE LYMPHOCYTE” value (72 h, tissue Blood, time 3 day)?
Its value is 16076 CELLS/uL.

And the “ABSOLUTE MONOCYTE” value (72 h, tissue Blood, time 3 day)?
The value was 195 CELLS/uL.

And the “ABSOLUTE SEGMENTED NEUTROPHIL” value (72 h, tissue Blood, time 3 day)?
The value was 1029 CELLS/uL.

What about the BASOPHIL (72 h, tissue Blood, time 3 day) of the same substance?
Its BASOPHIL is 0%.

And the EOSINOPHIL (72 h, tissue Blood, time 3 day)?
Its EOSINOPHIL is 0%.

What about the “ERYTHROCYTE COUNT” value (72 h, tissue Blood, time 3 day) of the same substance?
Its value is 6.07 x10E6/uL.

And the HEMATOCRIT (72 h, tissue Blood, time 3 day)?
Its HEMATOCRIT is 38.07%.

And the HEMOGLOBIN (72 h, tissue Blood, time 3 day)?
Its HEMOGLOBIN is 15 G/DL.

What about the “LEUKOCYTE COUNT” value (72 h, tissue Blood, time 3 day) of the same substance?
Its value is 17.3 x10E3/uL.

What about the LYMPHOCYTE (72 h, tissue Blood, time 3 day) of the same substance?
The LYMPHOCYTE was 92.67%.

What about the “MEAN CORPUSCULAR HEMOGLOBIN” value (72 h, tissue Blood, time 3 day) of the same substance?
Its value is 24.73 pg.

What about the MONOCYTE (72 h, tissue Blood, time 3 day) of the same substance?
The MONOCYTE was 1%.

And the NEUTROPHIL (72 h, tissue Blood, time 3 day)?
Its NEUTROPHIL is 6.33%.

And the “NUCLEATED RED BLOOD CELLS” value (72 h, tissue Blood, time 3 day)?
The value was 0 /100WBC.

And the “PLATELET COUNT” value (72 h, tissue Blood, time 3 day)?
Its value is 1432 x10E3/uL.

And the “ALANINE AMINOTRANSFERASE” value [1]?
Its value is 34.67 u/L.

What about the ALBUMIN [1] of the same substance?
Its ALBUMIN is 4.5 G/DL.

And the “ALKALINE PHOSPHATASE” value [1]?
Its value is 308.33 u/L.

What about the “ASPARTATE AMINOTRANSFERASE” value [1] of the same substance?
Its value is 90.67 u/L.

What about the “BLOOD UREA NITROGEN” value [1] of the same substance?
The value was 21.33 mg/dL.

What about the “CARBON DIOXIDE” value [1] of the same substance?
Its value is 23.67 mmol/L.

What about the CHOLESTEROL [1] of the same substance?
Its CHOLESTEROL is 68 mg/dL.

And the “CREATINE PHOSPHOKINASE” value [1]?
Its value is 251 u/L.

And the CREATININE [1]?
Its CREATININE is 0.17 mg/dL.

What about the GLUCOSE [1] of the same substance?
The GLUCOSE was 173 mg/dL.

And the “LACTATE DEHYDROGENASE” value [1]?
Its value is 383.67 u/L.

What about the LIPASE [1] of the same substance?
The LIPASE was 8.33 u/L.

What about the PHOSPHORUS [1] of the same substance?
The PHOSPHORUS was 13.27 mg/dL.

And the POTASSIUM [1]?
The POTASSIUM was 6.61 MEQ/L.

What about the “TOTAL BILIRUBIN” value [1] of the same substance?
Its value is 0.1 mg/dL.

What about the “TOTAL PROTEIN” value [1] of the same substance?
The value was 6.4 G/DL.

What about the “URIC ACID” value [1] of the same substance?
The value was 1.87 mg/dL.

What about the “ABSOLUTE BASOPHIL” value [2] of the same substance?
The value was 0 CELLS/uL.

What about the “ABSOLUTE EOSINOPHIL” value [2] of the same substance?
Its value is 139 CELLS/uL.

And the “ABSOLUTE LYMPHOCYTE” value [2]?
Its value is 12315 CELLS/uL.

What about the “ABSOLUTE MONOCYTE” value [2] of the same substance?
Its value is 50.33 CELLS/uL.

What about the “ABSOLUTE SEGMENTED NEUTROPHIL” value [2] of the same substance?
The value was 1129 CELLS/uL.

And the BASOPHIL [2]?
The BASOPHIL was 0%.

And the EOSINOPHIL [2]?
The EOSINOPHIL was 1%.

And the “ERYTHROCYTE COUNT” value [2]?
Its value is 5.93 x10E6/uL.

And the HEMATOCRIT [2]?
The HEMATOCRIT was 37.1%.

And the HEMOGLOBIN [2]?
Its HEMOGLOBIN is 14.97 G/DL.

And the “LEUKOCYTE COUNT” value [2]?
The value was 13.63 x10E3/uL.

And the LYMPHOCYTE [2]?
The LYMPHOCYTE was 90.33%.

And the “MEAN CORPUSCULAR HEMOGLOBIN” value [2]?
The value was 25.2 pg.

And the “MEAN CORPUSCULAR HEMOGLOBIN CONCENTRATION” value [2]?
Its value is 40.33 G/DL.

What about the “MEAN CORPUSCULAR VOLUME” value [2] of the same substance?
The value was 62.57 fL.

And the MONOCYTE [2]?
Its MONOCYTE is 0.33%.

And the NEUTROPHIL [2]?
The NEUTROPHIL was 8.33%.

And the “NUCLEATED RED BLOOD CELLS” value [2]?
Its value is 0.33 /100WBC.

And the “PLATELET COUNT” value [2]?
Its value is 1277.67 x10E3/uL.

And the “ALANINE AMINOTRANSFERASE” value [3]?
Its value is 45.67 u/L.

And the ALBUMIN [3]?
The ALBUMIN was 4.5 G/DL.

And the “ALKALINE PHOSPHATASE” value [3]?
Its value is 128.33 u/L.

What about the “ASPARTATE AMINOTRANSFERASE” value [3] of the same substance?
Its value is 86 u/L.

And the “CARBON DIOXIDE” value [3]?
Its value is 18 mmol/L.

And the CHOLESTEROL [3]?
Its CHOLESTEROL is 61.67 mg/dL.

And the “CREATINE PHOSPHOKINASE” value [3]?
The value was 409.33 u/L.

What about the CREATININE [3] of the same substance?
The CREATININE was 0.23 mg/dL.

What about the “LACTATE DEHYDROGENASE” value [3] of the same substance?
The value was 135.67 u/L.

What about the LIPASE [3] of the same substance?
The LIPASE was 8.33 u/L.

And the PHOSPHORUS [3]?
Its PHOSPHORUS is 10.9 mg/dL.

And the POTASSIUM [3]?
Its POTASSIUM is 16.23 MEQ/L.

And the “TOTAL BILIRUBIN” value [3]?
Its value is 0.13 mg/dL.

And the “TOTAL PROTEIN” value [3]?
Its value is 6.07 G/DL.
